“Also recorded” adds a separate entry of the source.
Tests used:
[1] = tested on: IL-6, IL-1β, IL-10, and TGF-β mRNA; test: Cytokine/chemokine mRNA levels (qPCR) in sorted MG6 cells; format: cell-based, mouse; details: qPCR after inhibitor treatment
Method: FIGS. 7A-7D. Pyk2 inhibition promotes the phagocytotic activity and inflammatory responses in microglia. FIG. 7A: Quantification of the effect of Pyk2 inhibitor treatment on proliferation of mononucleated and multinucleated MG6 cells. MG6 cells were pretreated with 1000 nM Pyk2 inhibitor for 24 hours and mono-/multi-nuclear cells were isolated and collected by fluorescent activated cell sorting. […] There is no difference in proliferation of mononuclear cells after Pyk2 inhibitor treatment compared to untreated control cells. FIG. 7B: Fluorescent imaging depicting the effect of Pyk2 inhibitor on phagocytosis of mononucleated and multinucleated MG6 cells. MG6 cells were pretreated with 1000 nM Pyk2 inhibitor for 24 hours and mono-/multi-nuclear cells were isolated and collected by fluorescent activated cell sorting. After sorting, cells were treated with pHrodo Red E. coli BioParticles. Representative images are shown at ×20 magnification level. FIG. 7C: Quantification of phagocytosis of mononucleated and multinucleated MG6 cells over time. After Pyk2 inhibitor treatment and cell sorting, MG6 cells were treated with pHrodo Red E. coli BioParticles for the indicated time. Fluorescence intensity was measured by fluorescence microplate reader at excitation/emission wavelengths of 560/580 nm. […] FIG. 7D: Quantification of the effect of Pyk2 inhibitor treatment on cytokine/chemokine levels of mononucleated and multinucleated MG6 cells. The relative mRNA levels of IL-6, IL-1β, IL-10, and TGF-β were measured by a real-time PCR (qPCR). Measured mRNA transcript levels are reported as the mean level±standard deviation (n=3; *: p-value<0.05; **: p-value <0.01; ***: p-value <0.005; ****: p-value <0.001; and *****: p-value <0.0005).
Next, the differences in the activity of mononucleated and multinucleated microglial cells in response to Pyk2 inhibition was further assessed. […] Mononucleated and multinucleated MG6 cells also differed regarding the cytokines and chemokines produced by each (FIG. 7D).

MG6 cells = test: MG6 microglia viability, morphology and proliferation (Cell Counting Kit-8); format: cell-based, mouse; details: for MG6 cell proliferation: 24 h after CSF-1, listed as Pyk2 inhibitor
Method: FIGS. 4A-4E. Induction of multinucleated cells by a Pyk2 inhibitor. FIG. 4A: Microscopic images depicting the effect of a Pyk2 inhibitor on the morphology of MG6 cells. MG6 cell line is established with neonatal C57BL/6 mouse microglia that are collected from whole brain and transformed with c-myc oncogene. MG6 cells were stimulated with 100 ng/mL CSF-1 for 48 hours and then cultured for 24 hours with various concentrations of Pyk2 inhibitor: 0 nM, 100 nM, 500 nM and 1000 nM. FIG. 4B: Quantification of the effect of a Pyk2 inhibitor on the proliferation of MG6 cells. MG6 cells were stimulated with CSF-1 and cultured with various concentrations of Pyk2 inhibitor as in FIG. 4A. The baseline proliferation rate is defined as 100 ng/mL CSF-1 treatment for 48 hours. Proliferation of MG6 cells with various concertation of Pyk2 inhibitor treatment is measured using a Cell Counter Kit for 4 hours of incubation. No difference in MG6 cell proliferation is observed at the Pyk2 inhibitor concentration of 100 nM. […] FIG. 4C: Microscopic images depicting multinucleated MG6 cells with 24 hours of 1000 nM Pyk2 inhibitor treatment following 48 hours of 100 ng/mL CSF-1 treatment. […] Multinucleated cells with two or more nuclei are observed as marked with circles in the bottom image. FIG. 4D: Quantification of the proportion of multinucleated cells after 0 nM, 500 nM, and 1000 nM Pyk2 inhibitor treatment. MG6 cells were treated with Pyk2 inhibitor for 24 hours after 48 hours of 100 ng/mL CSF-1 treatment. […] FIG. 4E: Immunohistochemical staining depicting multinucleation of Pyk2 inhibitor treated microglia. […]
To further assess the function of Pyk2 during neurodegenerative disorders, such as AD, the effect of Pyk2 inhibition was assessed in a microglial cell line. […]
Upon treatment with up to 1000 nM Pyk2 inhibitor, MG6 viability and morphology appeared to be unaffected (FIG. 4A). To assess if Pyk2 inhibition negatively affected proliferation of MG6 cells, treated and untreated cells were quantified using a Cell Counting Kit-8 (Dojindo, Japan CK104) after 4 hours of incubation.

CN(c1ccccc1CNc1nc(Nc2ccc3c(c2)CC(=O)N3)ncc1C(F)(F)F)S(C)(=O)=O [PF-431396]
IL-1β expression, mononucleated MG6 cells [1]: increased expression
IL-1β expression, multinucleated MG6 cells [1]: did not
IL-6 expression, mononucleated MG6 cells [1]: increased expression
IL-6 expression, multinucleated MG6 cells [1]: did not
IL-10, mononucleated MG6 cells [1]: reduction
IL-10, multinucleated MG6 cells [1]: reduction
TGF-β expression, multinucleated MG6 cells [1]: increase
MG6 cell proliferation (MG6 cells; 100 nM (up to 100 nM)): No significant change; also recorded: No difference
MG6 cell proliferation (MG6 cells; 500 nM or 1000 nM): slight reduction; also recorded: slightly decreased
MG6 viability and morphology (MG6 cells; up to 1000 nM, 24 h after 48 h 100 ng/mL CSF-1): unaffected
